Among the test systems are HCT-15 colon; NCI/ADR-RES ovarian; LOX IMVI melanoma; TK-10 renal; BT-549 breast; OVCAR-8 ovarian; OVCAR-3 ovarian; CAKI-1 renal; U251 CNS; A498 renal.
Holding throughout (experiment): NCI anticancer screen, dose series, 48 h

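Method: 48-hour compound exposure of cells in 96-well plates, five concentrations, linear interpolation of endpoints. TGI: total growth inhibition.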 Some results are limits rather than exact numbers.

For `CC1=C[P+](c2ccccc2)(c2ccccc2)c2ccccc2O1`, the TGI is > 100 µM in the experiment with HCT-15 colon; > 100 µM in the experiment with NCI/ADR-RES ovarian; 17.2 µM in the experiment with LOX IMVI melanoma; 94.4 µM with TK-10 renal; > 100 µM in the experiment with BT-549 breast; > 100 µM in the experiment on OVCAR-8 ovarian. For the same compound, the TGI in the experiment on OVCAR-3 ovarian was 9.4 µM; in the experiment on CAKI-1 renal, > 100 µM; in the experiment on U251 CNS it was > 100 µM.
Turning to `CCC(C)C(Nc1c2ccccc2nc2c(C(=O)NCCN(C)C)cccc12)C(=O)O` (stereo not drawn), the TGI is > 100 µM with HCT-15 colon; 77.6 µM in the experiment on NCI/ADR-RES ovarian; > 100 µM with LOX IMVI melanoma; > 100 µM with TK-10 renal; > 100 µM in the experiment on OVCAR-8 ovarian; > 100 µM in the experiment with OVCAR-3 ovarian. In addition, the values for the TGI with A498 renal and with U251 CNS were 42.4 µM and > 100 µM, respectively.
Take `CC1[C@@]2(O[C@@H]3C=C4C5CCC6Cc7nc8c(nc7C[C@@]6(C)C5C[C@H](O)[C@@]4(C)[C@]13O)CC1CCc3c(cc4c5c3C(O)C[C@H]5[C@@H](C)C3(O4)OC(C)(C)CC3O)[C@]1(C)C8)O[C@@](C)(CO)C[C@@H]2O` (stereo partly drawn): the TGI in the experiment with HCT-15 colon, in the experiment on NCI/ADR-RES ovarian, in the experiment on LOX IMVI melanoma, in the experiment on OVCAR-8 ovarian, in the experiment with OVCAR-3 ovarian and with CAKI-1 renal was > 3.72 µM in each case. For the same compound, the TGI with A498 renal came to 0.59 µM; in the experiment on U251 CNS, 0.586 µM.
As for `CN(C)CCNC(=O)c1cccc2c1C(=O)c1ccccc1C2=O`, the TGI is > 84.2 µM in the experiment on HCT-15 colon; 75.5 µM with NCI/ADR-RES ovarian; > 75.1 µM in the experiment on LOX IMVI melanoma; 88.3 µM in the experiment on OVCAR-8 ovarian; 52.4 µM with OVCAR-3 ovarian; > 100 µM in the experiment with CAKI-1 renal. In addition, the TGI in the experiment with A498 renal and in the experiment with U251 CNS was > 100 µM each time.
For `CCCCn1c(=O)[nH]c2c(N)ncnc21`, the TGI in the experiment on HCT-15 colon, in the experiment with NCI/ADR-RES ovarian, in the experiment on LOX IMVI melanoma, in the experiment with TK-10 renal, in the experiment with BT-549 breast and in the experiment on OVCAR-8 ovarian was > 100 µM in each case. In addition, the TGI in the experiment with OVCAR-3 ovarian, in the experiment with A498 renal and with U251 CNS was > 100 µM in each case.
Turning to `O=C(COc1cc(=O)oc2ccccc12)c1ccccc1`, the TGI in the experiment with HCT-15 colon was > 100 µM; with LOX IMVI melanoma it was > 100 µM; in the experiment with TK-10 renal, > 100 µM; with BT-549 breast it was > 100 µM; with OVCAR-8 ovarian it was 93.8 µM; with OVCAR-3 ovarian, 39.9 µM. The TGI in the experiment with CAKI-1 renal is 32.5 µM; with A498 renal, > 100 µM; in the experiment on U251 CNS it was 34.1 µM.
With `CC1=C(C)C(=O)OC(C(C)(O)C2(O)CC3OC34C3CC(O)C56OC5C=CC(=O)C6(C)C3CCC42C)C1` (stereo not drawn), the TGI with HCT-15 colon turned out to be 3.85 µM; in the experiment with LOX IMVI melanoma, 5.38 µM; in the experiment on TK-10 renal it was 7.43 µM; in the experiment with BT-549 breast it was 3.11 µM; in the experiment with OVCAR-8 ovarian it was 6.67 µM; in the experiment on OVCAR-3 ovarian it was 6.23 µM. Further, the TGI in the experiment on CAKI-1 renal was found to be 14.4 µM; in the experiment on A498 renal, 7.81 µM; in the experiment on U251 CNS it was 7.34 µM.
As to `Cc1[nH]c(=O)nc(N/N=C/c2c3ccccc3c(Cl)c3ccccc23)c1C(=O)Nc1ccc(Cl)cc1`, the TGI with HCT-15 colon, with LOX IMVI melanoma, in the experiment on TK-10 renal, in the experiment on BT-549 breast, with OVCAR-8 ovarian and with OVCAR-3 ovarian was > 100 µM throughout. Further, the TGI with CAKI-1 renal, in the experiment on A498 renal and in the experiment with U251 CNS was > 100 µM throughout.
Take `O=C(Nc1ccccc1C(=O)NCc1ccccc1)/C(=C/c1ccccc1O)NC(=O)c1ccccc1`: the TGI in the experiment with HCT-15 colon, in the experiment on NCI/ADR-RES ovarian, in the experiment on LOX IMVI melanoma, with TK-10 renal, in the experiment on OVCAR-8 ovarian and in the experiment on OVCAR-3 ovarian was > 100 µM throughout. Also, the TGI with CAKI-1 renal, in the experiment on A498 renal and in the experiment with U251 CNS was > 100 µM in each case.
With `CN(C)N1C(=O)C(=O)N(c2cccc3ccccc23)C1=O`, the TGI in the experiment on HCT-15 colon, with NCI/ADR-RES ovarian, with LOX IMVI melanoma, in the experiment on TK-10 renal, with OVCAR-8 ovarian and in the experiment with OVCAR-3 ovarian was > 10 µM each time. The TGI in the experiment on CAKI-1 renal, in the experiment with A498 renal and in the experiment with U251 CNS was > 10 µM in each case.
On to `C(=N\NC1=NCCCCN1)/c1ccc2ccccc2c1`, for which the TGI in the experiment with HCT-15 colon is 87.5 µM; in the experiment on NCI/ADR-RES ovarian, > 100 µM; in the experiment with LOX IMVI melanoma it was 29.8 µM; with TK-10 renal, > 100 µM; with BT-549 breast it was > 100 µM; in the experiment with OVCAR-8 ovarian, > 100 µM. Further, the values for the TGI in the experiment with OVCAR-3 ovarian and with U251 CNS were > 100 µM and 58.6 µM, respectively.
`CCOP(=O)(OCC)C(c1ccc(F)cc1)N(C(=O)NC(F)(F)F)c1ccc(F)cc1` (stereo not drawn): the TGI with HCT-15 colon, in the experiment on NCI/ADR-RES ovarian, with LOX IMVI melanoma, in the experiment on TK-10 renal, in the experiment with OVCAR-8 ovarian and in the experiment on OVCAR-3 ovarian was > 100 µM in each case. Also, the TGI in the experiment on CAKI-1 renal and in the experiment with U251 CNS was > 100 µM throughout.
`O=c1cc(NNc2ccccc2)[nH]c(=O)[nH]1`: the TGI with HCT-15 colon was 30 µM; with NCI/ADR-RES ovarian, 67.9 µM; in the experiment with LOX IMVI melanoma, 42.7 µM; in the experiment on TK-10 renal, > 100 µM; in the experiment on OVCAR-8 ovarian, 46.1 µM; in the experiment on OVCAR-3 ovarian it was 30.9 µM. In addition, the TGI is > 100 µM in the experiment on A498 renal and 31.9 µM with U251 CNS.
`O=[N+]([O-])c1ccc2c(c1)nc1n2C(c2c(F)cccc2F)SC1` (stereo not drawn): the TGI in the experiment on HCT-15 colon, in the experiment on NCI/ADR-RES ovarian, with LOX IMVI melanoma, in the experiment on TK-10 renal, in the experiment on BT-549 breast and with OVCAR-8 ovarian was > 100 µM each time. The TGI in the experiment with OVCAR-3 ovarian, in the experiment on CAKI-1 renal and in the experiment with U251 CNS was > 100 µM each time.
Regarding `N=c1oc2ccc3ccccc3c2cc1-c1nc2ccccc2c(=O)[nH]1`, the TGI is > 100 µM in the experiment on HCT-15 colon; > 100 µM in the experiment with NCI/ADR-RES ovarian; > 100 µM in the experiment with LOX IMVI melanoma; 90.4 µM in the experiment on TK-10 renal; 68.5 µM in the experiment on BT-549 breast; > 100 µM in the experiment on OVCAR-8 ovarian. Also, the TGI with CAKI-1 renal and with U251 CNS was > 100 µM in each case.

These data come from PubChem BioAssay (NCI).
